According to article PMC7321169, “N-Alkylaminoferrocene-Based Prodrugs Targeting Mitochondria of Cancer Cells” (Molecules, 2020):

Columns and labels:
[1] = Generation of ROS in cell free settings (2′,7′-dichlorofluorescin oxidation in the presence of H2O2); details: H2O2 10 mM; for Initial rate (dF/dt)0 of DCFH oxidation in the presence of H2O2: compound 49.5 μM, DCFH 10 μM, GSH 5 mM, EDTA 10 mM, MOPS buffer, 37 °C; for Activity in DCFH oxidation assay relative to prodrug 5: more active than 5, 49.5 μM
Description: 2′,7′-Dichlorofluorescin diacetate (DCFH-DA, 4.9 mg) was dissolved in 100 µL DMF and mixed with 0.1 M NaOH (900 µL). This mixture was incubated on a shaker for 30 min at 25 °C in the dark to obtain 10 mM 2′,7′-dichlorofluorescin (DCFH) stock solution. Next, 3-(N-morpholino)propanesulfonic acid buffer (MOPS buffer 100 mM, pH: 7.4) containing N,N,N’,N’-ethylenediaminetetraacetic acid (EDTA, 10 mM), glutathione (GSH, 5 mM) and H2O2 (10 mM) was prepared. Finally, DCFH was diluted in this buffer to 10 µM as the final concentration. Monitoring of the fluorescence was started (λex: 501 nm, λem: 525 nm). […] DMF and FeSO4 in DMF were used as controls. The measurement was conducted for 300 min (Table S2, Figure 1A).

DU-145 cells = assay: Viability of adherent DU-145 cells (MTT); format: cell-based, human
Description: (§1) Adherent A2780, DU-145 and NHDF cells were grown as mentioned before. Then, the cells were resuspended in the RPMI 1640 (DMEM for HDFa cell line) medium containing 5% FBS (for 24- and 48 h assays) or 10% FBS (for 96 h assays) 1% L-glutamine, and 1% penicillin/streptomycin. This suspension was spread in the wells of a 96-well microtiter plate. Every well in the plates contained 25,000 cells (exceptions: 12,500 cells for the 96h-assay and 10,000 cells for experiments with HDFa cell line) per well per 100 μL and was left at 37 °C in the chamber filled with CO2 (5%) overnight. Stock solutions of prodrugs of different concentrations (1 μL, solvent DMSO) were added to the wells and incubated for 24–96 h. Four experiments were conducted for each concentration of the prodrug. Finally, 3-(4,5-dimethylthiazol-2-yl)-2,5-diphenyltetrazolium bromide (MTT; 20 μL of the solution prepared by dissolving MTT (5 mg) in PBS buffer (1 mL)) was added to each well, incubated for 3 h, treated with sodium dodecyl sulfate (SDS) solution (90 μL, 10% solution in 0.01 M aqueous HCl), and incubated overnight. Then the intensity of absorbance at 590 nm was measured (MTT is converted to blue dye (λmax = 590 nm) in live cells). The absorbance at 690 nm was taken as a baseline value.

A2780 cells = assay: Viability of adherent A2780 cells (MTT); format: cell-based, human
Description: as §1

Jurkat cells [2] = assay: Viability and cell death of Jurkat cells (Annexin A5-FITC/PI flow cytometry); format: cell-based, human; details: for IC50: 48 h incubation; for Mechanism of cell death of Jurkat cells: 48 h, Ax/PI staining
Description: Jurkat cells were counted in MUSE Cell Analyzer using MUSE® Count &Viability Assay Kit (Merck-Millipore, Billerica, MA, USA) and adjusted to a density of 1.0 × 10^5/mL in RPMI 1640 medium (with 10% FCS and 1% glutamine). A total of 9000 cells per well per 90 μL were seeded into 96 well culture plates. The 50 mM prodrug stock solutions were diluted to 300, 100, 30, and 10 μM in cell culture medium and 10 μL of the dilutions was pipetted to the cells, receiving final test concentrations of 30, 10, 3, and 1 μM. Every concentration was tested in triplicates. Cells with corresponding amounts of DMSO served as negative controls. […] was incubated with 200 μL of freshly prepared staining solution, consisting of 1 μl Annexin A5-Fitc, 0.4 μL 1,1′,3,3,3′,3′-hexamethylindodicarbocyanine iodide (DiIC1(5)) (both from Thermo Fisher Scientific, Waltham, MA, USA), 66.6 ng propidiumiodide (PI) and 33 μM monobromobimane (MBB, both from Sigma-Aldrich, Taufkirchen, Germany) per 1 mL Ringer’s solution (Fresenius Kabi AG, Bad Homburg, Germany). Cells were incubated for 20 min at 4 °C and then analyzed in Gallios cytofluorometer™ (Beckman Coulter, Fullerton, CA, USA). Fitc and propidium iodide were excited at 488 nm; Fitc fluorescence was recorded on the FL1 sensor (525/38 nm band pass, BP) and propidium iodide fluorescence was detected on FL3 sensor (620/30 nm BP), DiIC1(5) fluorescence was excited at 638 nm and detected on FL6 sensor at 675/20 nm. Monobromobimane fluorescence was excited at 405 nm and detected on FL9 sensor at 430/40 nm. To eliminate any fluorescence bleed-through, electronic compensation was used. Data were analyzed employing Kaluza™ software Version 1.2 (Beckman Coulter, Fullerton, CA, USA) and processed in Microsoft Excel. Cells negative for Annexin A5- Fitc and propidium iodide were considered viable. IC50 values were determined by fitting the % values of Ax-PI- cells versus drug concentration with a sigmoidal curve using GraphPad Prism software. Reduced glutathione (an intracellular thiol) can be detected by monobromobimane, a dye that becomes fluorescent after non-enzymatic binding to thiols. For analysis of the amount of mitochondrial membrane potential or reduced glutathione, the mean fluorescence index (MFI) was determined from viable cells by gating on Ax-PI-events.

BL-2 cells = assay: Viability of suspension BL-2 cells (MTT); format: cell-based
Description: The suspension of BL-2 cells in the RPMI 1640 medium containing 5% FBS (for 24- and 48 h assays) or 10% FBS (for 96 h assays) 1% L-glutamine, and 1% penicillin/streptomycin was spread in the wells of a 96-well microtiter plate. Every plate contained 50,000 cells (with the exception of the 96h-experiment, for which 25,000 cells were used) per well per 100 μL. Stock solutions of prodrugs of different concentrations (1 μL, solvent DMSO) were added to the wells and incubated for 24–96 h. Four experiments were conducted for each concentration of the prodrug. Finally, 3-(4,5-dimethylthiazol-2-yl)-2,5-diphenyltetrazolium bromide (MTT; 20 μL of the solution prepared by dissolving MTT (5 mg) in PBS buffer (1 mL)) was added to each well, incubated for 3 h, treated with sodium dodecyl sulfate (SDS) solution (90 μL, 10% solution in 0.01 M aqueous HCl), and incubated overnight. Then the intensity of absorbance at 590 nm was measured (MTT is converted to blue dye (λmax = 590 nm) in live cells). The absorbance at 690 nm was taken as a baseline value.

Jurkat cells [3] = assay: Mitochondrial membrane potential of Jurkat cells (DiIC1(5)); format: cell-based, human; details: 48 h; 5 at nontoxic concentrations ≤ 10 μM; 12 at all tested concentrations
Description: Jurkat cells were counted in MUSE Cell Analyzer using MUSE® Count &Viability Assay Kit (Merck-Millipore, Billerica, MA, USA) and adjusted to a density of 1.0 × 10^5/mL in RPMI 1640 medium (with 10% FCS and 1% glutamine). A total of 9000 cells per well per 90 μL were seeded into 96 well culture plates. The 50 mM prodrug stock solutions were diluted to 300, 100, 30, and 10 μM in cell culture medium and 10 μL of the dilutions was pipetted to the cells, receiving final test concentrations of 30, 10, 3, and 1 μM. Every concentration was tested in triplicates. Cells with corresponding amounts of DMSO served as negative controls. […] Cells were incubated for 20 min at 4 °C and then analyzed in Gallios cytofluorometer™ (Beckman Coulter, Fullerton, CA, USA). Fitc and propidium iodide were excited at 488 nm; Fitc fluorescence was recorded on the FL1 sensor (525/38 nm band pass, BP) and propidium iodide fluorescence was detected on FL3 sensor (620/30 nm BP), DiIC1(5) fluorescence was excited at 638 nm and detected on FL6 sensor at 675/20 nm. Monobromobimane fluorescence was excited at 405 nm and detected on FL9 sensor at 430/40 nm. To eliminate any fluorescence bleed-through, electronic compensation was used. Data were analyzed employing Kaluza™ software Version 1.2 (Beckman Coulter, Fullerton, CA, USA) and processed in Microsoft Excel. […]

HDFa cells = assay: Viability of adherent HDFa cells (MTT); format: cell-based, human; details: 48 h incubation, normal cells
Description: as §1

[4] = Solubility of prodrugs in aqueous buffers (absorbance at 790 nm); format: physicochemical
Description: Prodrugs 5, 7 and 9 (known control) were dissolved in DMSO at concentrations of 15, 10, 5, 2, 1.5, 1, and 0.2 mM. These solutions (10 μL) were transferred to quartz cuvettes containing 990 μL of either Dulbecco's phosphate-buffered saline (DPBS) or Roswell Park Memorial Institute (RPMI) medium containing 20% of fetal bovine serum (FBS) to obtain solutions (or suspensions) with final concentrations of prodrugs-150, 100, 50, 20, 15, 10, and 2 μM. The absorbance at 790 nm of the resulting solutions/suspensions was measured and plotted as a function of the concentration of prodrugs.

Compound	Initial rate (dF/dt)0 of DCFH oxidation in the presence of H2O2 [1] [a.u. × min^−1]	Activity in DCFH oxidation assay relative to prodrug 5 [1] [fold]	IC50 (DU-145 cells; 24 h incubation) [µM]	IC50 (DU-145 cells; 48 h incubation) [µM]	IC50 (DU-145 cells; 96 h incubation) [µM]	IC50 (A2780 cells; 24 h incubation) [µM]	IC50 (A2780 cells; 48 h incubation) [µM]	IC50 (A2780 cells; 96 h incubation) [µM]	IC50 (Jurkat cells [2]) [µM]	IC50 (BL-2 cells; 24 h incubation) [µM]	IC50 (BL-2 cells; 48 h incubation) [µM]	IC50 (BL-2 cells; 96 h incubation) [µM]	Mechanism of cell death of Jurkat cells (Jurkat cells [2])	IC50 (BL-2 cells; BL2, 48 h incubation) [µM]	also measured
O=S(=O)([O-])[O-].[Fe+2] [FeSO4]	22.3	2.9	–	–	–	–	–	–	–	–	–	–	–	–	–
[Fe+2].c1cc[cH-]c1.c1cc[cH-]c1 [control 11, ferrocene]	–	–	> 50	> 50	> 50	> 50	> 50	> 50	> 50	> 50	> 50	> 50	–	–	–
CCCC[P+](c1ccccc1)(c1ccccc1)c1ccccc1 [control 12]	–	–	–	–	–	–	–	–	–	–	–	–	mostly via necrosis	0.5 ± 0.2	Effect on mitochondrial potential of Jurkat cells (Jurkat cells [3]): reduces the mitochondrial potential; IC50 (HDFa cells; Homo sapiens, HDFa): < 1 µM; IC50 (BL-2 cells; BL2, 24 h incubation): 2 ± 1 µM; IC50 (BL-2 cells; BL2, 96 h incubation): 0.3 ± 0.1 µM
C#Cc1ccc(-c2c3ccc(=[N+](C)C)cc-3oc3cc(N(C)C)ccc23)c(C(=O)[O-])c1 [control 13]	–	–	–	–	–	–	–	–	–	–	–	–	–	35 ± 6	IC50 (A2780 cells; Homo sapiens, A2780, 48 h incubation): > 50 µM
CC1(C)OB(c2ccc(COC(=O)N(Cc3cccc(CN4CCCCC4)c3)[c-]3cccc3)cc2)OC1(C)C.[Fe+2].c1cc[cH-]c1 [prodrug 8]	17.1	2.2	–	–	–	–	–	–	–	–	–	–	–	–	–
COC(=O)CCCCCn1cc(CN(C(=O)OCc2ccc(B3OC(C)(C)C(C)(C)O3)cc2)[c-]2cccc2)nn1.[Fe+2].c1cc[cH-]c1 [prodrug 9]	–	–	> 50	47 ± 2	35 ± 3	42 ± 3	32 ± 3	30 ± 5	30 ± 4	37 ± 2	35 ± 2	33 ± 2	mostly via necrosis	–	IC50 (HDFa cells): > 50 µM; Solubility in DPBS ([4]; DPBS containing DMSO (1%, v/v)): 90 ± 10 µM; Solubility in FBS ([4]; RPMI medium containing 20% FBS and DMSO (1%, v/v)): 114 ± 11 µM
